The record followed here is ChEMBL document CHEMBL3865804, “A Gestalt approach to Gram-negative entry” (2016).

What all share (format): functional
The test system of one assay is Haemophilus influenzae. Description: Antibacterial activity against Haemophilus influenzae MB5363 by broth microdilution technique.
The test system of another assay is Streptococcus pneumoniae. Description: Antibacterial activity against Streptococcus pneumoniae CL2883 by broth microdilution technique.
The next assay deals with Klebsiella pneumoniae. Put plainly: Antibacterial activity against Klebsiella pneumoniae MB4005 by broth microdilution technique.
The next assay has as its system Enterococcus faecalis. Description: Antibacterial activity against Enterococcus faecalis MB5407 by broth microdilution technique.
Another assay has as its system Staphylococcus aureus. Description: Antibacterial activity against Staphylococcus aureus MB2865 by broth microdilution technique. A general note: Dilution methods test growth across graded concentrations, often in twofold steps.
The next assay has as its system Escherichia coli. Put plainly: Antibacterial activity against Escherichia coli MB2884 by broth microdilution technique.

Converted amounts (≈) assume the structure as drawn.

For `CC[C@H]1OC(=O)[C@H](C)[C@@H](O[C@H]2C[C@@](C)(OC)[C@@H](O)[C@H](C)O2)[C@H](C)[C@@H](O[C@@H]2O[C@H](C)C[C@H](N(C)C)[C@H]2O)[C@](C)(O)C[C@@H](C)N(C)C[C@H](C)[C@@H](O)[C@]1(C)O` [L-701677], the MIC against Haemophilus influenzae stood at 1 µg/mL (≈ 1.34 µM); against Streptococcus pneumoniae, 0.03 µg/mL (≈ 0.0401 µM); in the assay with Klebsiella pneumoniae, 1 µg/mL (≈ 1.34 µM); with Enterococcus faecalis it was 2 µg/mL (≈ 2.67 µM); with Staphylococcus aureus it was 0.5 µg/mL (≈ 0.668 µM); against Escherichia coli, 1 µg/mL (≈ 1.34 µM).

Take `CC[C@H]1OC(=O)[C@H](C)[C@@H](O[C@H]2C[C@@](C)(OC)[C@@H](O)[C@H](C)O2)[C@H](C)[C@@H](O[C@@H]2O[C@H](C)C[C@H](N(C)C)[C@H]2O)[C@](C)(O)C[C@@H](C)C(=O)[C@H](C)[C@@H](O)[C@]1(C)O` [ERYTHROMYCIN]: the MIC against Haemophilus influenzae was determined as 2 µg/mL (≈ 2.73 µM); against Streptococcus pneumoniae it was 0.02 µg/mL (≈ 0.0273 µM); with Klebsiella pneumoniae, 32 µg/mL (≈ 43.6 µM); with Enterococcus faecalis, 1 µg/mL (≈ 1.36 µM); with Staphylococcus aureus it was 0.25 µg/mL (≈ 0.341 µM); with Escherichia coli, 32 µg/mL (≈ 43.6 µM).

Regarding `CC[C@H]1OC(=O)[C@H](C)[C@@H](O[C@H]2C[C@@](C)(OC)[C@@H](O)[C@H](C)O2)[C@H](C)[C@@H](O[C@@H]2O[C@H](C)C[C@H](N(C)C)[C@H]2O)[C@](C)(O)C[C@@H](C)CN(C)[C@H](C)[C@@H](O)[C@]1(C)O` [AZITHROMYCIN], the MIC in the assay with Haemophilus influenzae is 0.5 µg/mL (≈ 0.668 µM); against Streptococcus pneumoniae, 0.03 µg/mL (≈ 0.0401 µM); against Klebsiella pneumoniae, 2 µg/mL (≈ 2.67 µM); in the assay with Enterococcus faecalis, 4 µg/mL (≈ 5.34 µM); with Staphylococcus aureus, 1 µg/mL (≈ 1.34 µM); against Escherichia coli, 1 µg/mL (≈ 1.34 µM).

With `CC[C@H]1OC(=O)[C@H](C)[C@@H](O[C@H]2C[C@@](C)(OC)[C@@H](N)[C@H](C)O2)[C@H](C)[C@@H](O[C@@H]2O[C@H](C)C[C@H](N(C)C)[C@H]2O)[C@](C)(O)C[C@@H](C)N(C)C[C@H](C)[C@@H](O)[C@]1(C)O`, the MIC in the assay on Haemophilus influenzae is 0.25 µg/mL (≈ 0.334 µM); against Streptococcus pneumoniae, not above 0.06 µg/mL; against Klebsiella pneumoniae, 0.13 µg/mL (≈ 0.174 µM); against Enterococcus faecalis it was 2 µg/mL (≈ 2.67 µM); against Staphylococcus aureus, 1 µg/mL (≈ 1.34 µM); against Escherichia coli, 0.13 µg/mL (≈ 0.174 µM).
